Data: paper PMC5784979, “Direct comparison of the four aldehyde oxidase enzymes present in mouse gives insight into their substrate specificities” (PLoS ONE, 2018)

Columns and labels:
mAOX2 = biological target: T1, mAOX2 (Mus musculus, UniProt Q5SGK3); test: DCPIP reduction at […] nm, steady-state kinetics; type: biochemical; conditions: 100 μM DCPIP as electron acceptor, 50 mM Tris-HCl, 1 mM EDTA, pH 8.0, 37°C, corrected to 100% Mo saturation
T1 construct: gene Aox2; recombinant from E. coli TP1000 (codon-optimized plasmid pMAOX2co), Ni-NTA and Superdex 200 purified, chemically sulfurated, dimer (300 kDa)
T1 sequence (Q5SGK3 1-1345): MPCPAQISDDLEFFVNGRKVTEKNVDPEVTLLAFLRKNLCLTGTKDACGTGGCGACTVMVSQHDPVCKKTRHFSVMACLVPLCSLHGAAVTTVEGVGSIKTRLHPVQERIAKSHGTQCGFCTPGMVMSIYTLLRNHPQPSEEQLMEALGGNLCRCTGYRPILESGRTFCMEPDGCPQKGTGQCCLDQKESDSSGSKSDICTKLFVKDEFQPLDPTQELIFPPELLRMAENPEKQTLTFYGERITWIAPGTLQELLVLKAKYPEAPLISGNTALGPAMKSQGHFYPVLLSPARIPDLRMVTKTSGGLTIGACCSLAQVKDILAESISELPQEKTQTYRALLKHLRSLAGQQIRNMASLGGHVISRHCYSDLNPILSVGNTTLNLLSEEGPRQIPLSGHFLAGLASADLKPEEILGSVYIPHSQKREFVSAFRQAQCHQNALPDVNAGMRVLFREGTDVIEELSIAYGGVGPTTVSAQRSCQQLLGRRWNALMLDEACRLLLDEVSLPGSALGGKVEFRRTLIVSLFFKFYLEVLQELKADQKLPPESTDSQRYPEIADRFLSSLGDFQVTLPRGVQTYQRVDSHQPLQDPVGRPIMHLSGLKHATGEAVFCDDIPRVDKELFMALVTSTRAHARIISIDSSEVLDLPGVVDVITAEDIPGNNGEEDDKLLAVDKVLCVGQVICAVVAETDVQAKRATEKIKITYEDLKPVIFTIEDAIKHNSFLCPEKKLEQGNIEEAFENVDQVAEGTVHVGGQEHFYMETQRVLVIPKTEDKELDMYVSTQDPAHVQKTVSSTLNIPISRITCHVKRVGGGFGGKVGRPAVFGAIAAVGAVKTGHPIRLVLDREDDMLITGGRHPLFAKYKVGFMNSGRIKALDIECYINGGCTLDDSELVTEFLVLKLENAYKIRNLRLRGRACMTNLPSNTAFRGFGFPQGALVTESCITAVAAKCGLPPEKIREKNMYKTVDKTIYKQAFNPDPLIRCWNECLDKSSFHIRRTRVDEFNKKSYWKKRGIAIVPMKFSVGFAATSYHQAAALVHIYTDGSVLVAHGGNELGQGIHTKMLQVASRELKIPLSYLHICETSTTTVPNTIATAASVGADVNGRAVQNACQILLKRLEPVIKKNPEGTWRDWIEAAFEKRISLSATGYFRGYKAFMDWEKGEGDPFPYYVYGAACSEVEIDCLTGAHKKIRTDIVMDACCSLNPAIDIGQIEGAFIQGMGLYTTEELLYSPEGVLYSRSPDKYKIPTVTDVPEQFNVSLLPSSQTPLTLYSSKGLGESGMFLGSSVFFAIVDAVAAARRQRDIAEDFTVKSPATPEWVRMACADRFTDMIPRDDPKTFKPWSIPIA

mAOX4 = biological target: T2, mAOX4 (Mus musculus, UniProt Q3TYQ9); test: DCPIP reduction at […] nm, steady-state kinetics; type: biochemical; conditions: 100 μM DCPIP as electron acceptor, 50 mM Tris-HCl, 1 mM EDTA, pH 8.0, 37°C, corrected to 100% Mo saturation
T2 construct: gene Aox4; recombinant from E. coli TP1000 (plasmid pMAOX4), Ni-NTA and Superdex 200 purified, chemically sulfurated, dimer (300 kDa)
T2 sequence (Q3TYQ9 1-1336): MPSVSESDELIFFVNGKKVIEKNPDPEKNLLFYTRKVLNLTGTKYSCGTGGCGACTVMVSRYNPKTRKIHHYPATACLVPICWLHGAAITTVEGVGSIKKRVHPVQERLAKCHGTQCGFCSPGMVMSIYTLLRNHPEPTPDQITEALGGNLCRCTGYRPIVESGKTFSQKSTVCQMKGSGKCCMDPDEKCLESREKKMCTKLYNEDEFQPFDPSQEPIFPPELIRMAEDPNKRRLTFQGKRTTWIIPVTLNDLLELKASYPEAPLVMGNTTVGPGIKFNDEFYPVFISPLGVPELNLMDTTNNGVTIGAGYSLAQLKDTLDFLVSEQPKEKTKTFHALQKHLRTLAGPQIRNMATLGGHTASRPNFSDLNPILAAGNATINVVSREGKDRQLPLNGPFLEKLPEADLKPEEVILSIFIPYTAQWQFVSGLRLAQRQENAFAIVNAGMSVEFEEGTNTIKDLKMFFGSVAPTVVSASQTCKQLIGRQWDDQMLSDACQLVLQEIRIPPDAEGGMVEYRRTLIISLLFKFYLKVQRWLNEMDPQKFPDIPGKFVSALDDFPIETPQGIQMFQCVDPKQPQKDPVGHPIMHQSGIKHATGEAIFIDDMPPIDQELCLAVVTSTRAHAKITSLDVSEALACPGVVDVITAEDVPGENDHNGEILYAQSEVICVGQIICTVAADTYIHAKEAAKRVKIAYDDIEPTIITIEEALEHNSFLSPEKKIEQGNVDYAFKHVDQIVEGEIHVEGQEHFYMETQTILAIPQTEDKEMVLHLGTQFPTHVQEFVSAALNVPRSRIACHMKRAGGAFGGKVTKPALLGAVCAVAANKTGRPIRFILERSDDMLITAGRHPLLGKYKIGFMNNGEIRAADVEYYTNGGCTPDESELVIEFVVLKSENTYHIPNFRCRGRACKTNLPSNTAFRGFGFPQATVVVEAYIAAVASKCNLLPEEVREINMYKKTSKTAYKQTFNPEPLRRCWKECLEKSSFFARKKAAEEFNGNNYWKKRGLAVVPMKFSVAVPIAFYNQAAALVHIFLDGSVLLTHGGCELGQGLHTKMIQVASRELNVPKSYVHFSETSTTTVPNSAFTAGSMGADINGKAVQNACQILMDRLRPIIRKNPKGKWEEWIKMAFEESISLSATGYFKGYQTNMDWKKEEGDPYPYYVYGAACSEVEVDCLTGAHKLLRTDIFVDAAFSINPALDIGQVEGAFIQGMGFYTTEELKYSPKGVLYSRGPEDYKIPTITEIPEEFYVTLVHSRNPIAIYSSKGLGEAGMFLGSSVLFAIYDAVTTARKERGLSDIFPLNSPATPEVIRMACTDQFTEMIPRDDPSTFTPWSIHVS

[1] = limit given jointly for mAOX3, mAOX4 and mAOX2

Row | Km (mAOX2) | Km (mAOX4) | Km (mAOX2; [1]) | Km (mAOX4; [1]) | SMILES
1 | 4.4 to 4.6 mM | 4.4 to 4.6 mM |  |  | CC=O [acetaldehyde]
2 |  |  | < 0.002 mM | < 0.002 mM | O=Cc1ccc(O)cc1 [4-hydroxybenzaldehyde]
